Several values for one entry are separate records, joined by “and”; a condition that tells them apart may be missing. Equal values may be shown once.
Test: Clinical chemistry after face-mask inhalation in beagle dogs
Type: in vivo
Details: times not given
Procedure: The objective of the study is to determine the maximum tolerated dose (MTD) or maximum feasible dose (MFD) of inhaled bismuth ethanedithiol (BisEDT) after face-mask inhalation exposure (up to 60 min of exposure) in male and female beagle dogs. Animals will be monitored for up to 14 days following the first day of exposure and blood will be collected at predetermined timepoints to analyze the pharmacokinetics of BisEDT. In addition, a coagulation panel will be conducted prior to necropsy. At the conclusion of the study animals will be euthanized and undergo necropsy during which the respiratory tract will be harvested for bioanalytical and histopathological analysis. Results obtained will inform a follow up repeated dose GLP study. This test article is currently being developed as a novel formulation of a broad spectrum antimicrobial/antibiofilm agent, indicated for the treatment of lung infections in patients with cystic fibrosis.
Once adequately conditioned to the restraint device and face-masks, the animals are individually exposed to the test article aerosols. Animals receive a single face-mask inhalation exposure in a ramp study design to test article aerosols for up to 60 min. Animal observations during and post exposure determine the tolerance of inhaled BisEDT aerosols.
Group 1 (vehicle) are exposed to a vehicle atmosphere for 30 minutes. Group 2 (50 μg/kg) are exposed to BisEDT for 30 minutes. Target concentrations and exposure durations for Groups 3-5 are based on the presence of any toxicity via clinical observations or gross necropsy findings. In each of Groups 3-5, if no adverse clinical signs of toxicity are observed, the next groups' exposure will be conducted at a higher target dose. If adverse clinical signs of toxicity are observed, the next groups' exposure will be conducted at a lower target dose. This approach is repeated for all BisEDT doses. The final documented exposure duration is the maximum tolerated dose or the maximum feasible dose.
Blood are collected for pharmacokinetic (PK) analysis prior to exposure, then at 4 hr (±5 min) post exposure, and again on Day 1, Day 2, Day 7 (pre- and 4 hr (±5 min)-post exposure), Day 8, Day 9, Day 10, Day 11, Day 12, Day 13, and Day 14. A total of 0.25 mL is collected at each timepoint. No PK blood is collected from the vehicle control (Group 1) animals; only animals exposed to BisEDT have blood collected for PK analysis. Collected samples are flash frozen without processing for shipment to Medpace for bioanalytical analysis. Additional blood is collected from all animals in all groups for hematology (1 mL) and clinical chemistry (1 mL) at baseline, Day 7 (pre-exposure), and again at euthanasia. Blood (2-2 mL) is collected from all animals at necropsy for coagulation analysis (d-Dimer, fibrinogen, PT, and PTT).
For clinical chemistry analyses, whole blood (1 mL) is placed into serum separator or clot tube and […] by centrifugation at a minimum of 1300 g at 2 to 8° C. for 10 (±1) min. Plasma samples are stored at −70 to −90° C. until analysis.
Clinical chemistry samples are analyzed on a Hitachi Modular Analytics Clinical Chemistry System (Roche Diagnostics, Indianapolis, IN).

[1] = Grp 3, dogs 3001 male, 3002 female, 3 samplings each
[2] = Grp 4, dogs 4001 male, 4004 female (3 samplings each), 4002 female, 4003 male (2 samplings each)
[3] = Grp 4 Avg (stands after dogs 4001, 4004), 3 samplings

## C1C[S][Bi]([S]CC[S][Bi]2[S]CC[S]2)[S]1 [BisEDT, bismuth-1,2-ethanedithiol]
[1]
  TBIL: 0.15 mg/dL
  TP: 4.8 g/dL and 5.1 g/dL and 5.0 g/dL and 5.5 g/dL
Grp 3 Avg, 3 samplings
  AGR: 2.2 and 1.9 and 2.4
  ALB: 3.4 g/dL and 3.5 g/dL and 3.6 g/dL
  ALPK: 153 IU/L and 113 IU/L and 149 IU/L
  ALT: 27 IU/L and 22 IU/L and 21 IU/L
  AST: 30 IU/L and 32 IU/L
  CA2: 11.0 mg/dL and 10.7 mg/dL and 10.2 mg/dL
  CHOL: 113 mg/dL and 143 mg/dL and 126 mg/dL
  CREA: 0.6 mg/dL and 1.0 mg/dL
  GGT: 3 IU/L
  GLOB: 1.6 g/dL and 1.9 g/dL and 1.5 g/dL
  GLUC: 106 mg/dL and 89 mg/dL and 58 mg/dL
  K: 5.1 mmo/L and 5.2 mmo/L and 5.9 mmo/L
  Na: 148 mmo/L and 146 mmo/L and 149 mmo/L
  TBIL: 0.15 mg/dL
  TP: 4.9 g/dL and 5.3 g/dL and 5.1 g/dL
  TRIG: 30 mg/dL and 39 mg/dL and 55 mg/dL
[2]
  AGR: 2.3 and 1.8 and 1.9 and 2.0 and 1.7 and 1.6
  ALB: 3.6 g/dL and 3.4 g/dL and 3.2 g/dL and 3.3 g/dL and 3.5 g/dL
  ALPK: 103 IU/L and 114 IU/L and 119 IU/L and 93 IU/L and 95 IU/L and 147 IU/L and 146 IU/L and 129 IU/L
  ALT: 27 IU/L and 28 IU/L and 25 IU/L and 24 IU/L and 20 IU/L and 21 IU/L and 40 IU/L and 23 IU/L
  AST: 32 IU/L and 39 IU/L and 34 IU/L and 33 IU/L and 38 IU/L and 31 IU/L and 35 IU/L and 30 IU/L
  BUN: 11 mg/dL and 12 mg/dL and 13 mg/dL and 16 mg/dL and 15 mg/dL
  CA2: 10.8 mg/dL and 10.6 mg/dL and 10.4 mg/dL and 11.1 mg/dL and 11.2 mg/dL and 11.0 mg/dL
  CREA: 0.7 mg/dL and 0.6 mg/dL and 0.5 mg/dL
  GGT: 3 IU/L
  GLOB: 1.6 g/dL and 1.9 g/dL and 1.7 g/dL and 2.1 g/dL and 2.0 g/dL
  K: 4.7 mmo/L and 4.8 mmo/L and 4.6 mmo/L and 5.1 mmo/L and 4.3 mmo/L and 5.3 mmo/L and 4.9 mmo/L
  Na: 152 mmo/L and 147 mmo/L and 145 mmo/L and 153 mmo/L and 148 mmo/L and 146 mmo/L and 149 mmo/L
  TBIL: 0.15 mg/dL
  TP: 5.2 g/dL and 5.3 g/dL and 4.9 g/dL and 5.1 g/dL and 5.0 g/dL and 5.6 g/dL and 5.5 g/dL and 5.4 g/dL
  TRIG: 49 mg/dL and 46 mg/dL and 40 mg/dL and 53 mg/dL and 44 mg/dL and 34 mg/dL and 41 mg/dL and 55 mg/dL
[3]
  AGR: 2.2 and 1.8 and 1.9
  ALB: 3.5 g/dL and 3.4 g/dL and 3.3 g/dL
  ALPK: 103 IU/L and 104 IU/L and 107 IU/L
  ALT: 28 IU/L and 26 IU/L
  AST: 33 IU/L and 39 IU/L
  BUN: 12 mg/dL and 13 mg/dL
  CA2: 10.8 mg/dL and 10.7 mg/dL and 10.5 mg/dL
  CHOL: 139 mg/dL and 136 mg/dL and 112 mg/dL
  CREA: 0.7 mg/dL and 0.6 mg/dL
  GGT: 3 IU/L
  GLOB: 1.7 g/dL and 1.9 g/dL
  GLUC: 102 mg/dL and 76 mg/dL and 91 mg/dL
  K: 4.7 mmo/L and 5.0 mmo/L and 4.5 mmo/L
  Na: 153 mmo/L and 148 mmo/L and 146 mmo/L
  TBIL: 0.15 mg/dL
  TP: 5.2 g/dL and 5.3 g/dL and 5.0 g/dL
  TRIG: 51 mg/dL and 48 mg/dL and 42 mg/dL
